Laboratory results reported in publication PMC2870997 (Bioorganic & medicinal chemistry letters, 2009).

System: PKA reporter Reg-F[1]:Cat-F[2]
Assay: Protein-fragment complementation
Assay type: cell-based
Details: β2AR-HEK293 cells

SMILES: Cc1ccc(OCC(O)C(C)NC(C)C)c2c1CCC2 (centres unmarked) [Analogue 20, IC118551]
- Effect of pretreatment on the response to 19 (control) (1 μM pretreatment): capable of preventing the effects of 19

SMILES: CC(C)NCC(O)c1ccc(O)c(O)c1 (centres unmarked) [Analogue 19, isoproterenol]
- Effect on luminescence by β2AR activation (control) (1 μM, 30 min): able to reduce luminescence
